According to patent publication US9695155B2, “Herbicidal substituted pyrimidinyloxy benzene compounds” (E. I. DU PONT DE NEMOURS AND COMPANY, priority 2013, dated 2017):

What was measured:
wheat [1] = assay: Test A preemergence; assay type: in vivo, Triticum aestivum
Outline: (§1)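 Visual injury scored 0–100 (100 = complete control) against untreated controls about 10 days after treatment in a greenhouse. Test chemicals, formulated with surfactant in non-phytotoxic solvent, were sprayed on soil preemergence or on 2-10 cm, one- to two-leaf plants postemergence.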

large (Lg) crabgrass = assay: Test C postemergence; assay type: in vivo, Digitaria sanguinalis; settings: Digitaria sanguinalis, post-emergence
Outline: (§2)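 Sown in loam/sand → sprayed pre-emergence; or grown to 1–4 leaves in peat mix → sprayed post-emergence. Same solvent/surfactant formulation both ways. Greenhouse 13–15 d. Score 0–100 visual.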

morningglory [2] = assay: Test A preemergence; assay type: in vivo, Ipomoea spp.
Outline: as §1

kochia = assay: Test C postemergence; assay type: in vivo, Kochia scoparia; settings: Bassia scoparia, post-emergence
Outline: as §2

barnyardgrass [3] = assay: Test A preemergence; assay type: in vivo, Echinochloa crus-galli; settings: Echinochloa crus-galli, pre-emergence, 240 h
Outline: as §1

morningglory [4] = assay: Test C postemergence; assay type: in vivo, Ipomoea coccinea; settings: Ipomoea, post-emergence
Outline: as §2

barnyardgrass [5] = assay: Test C postemergence; assay type: in vivo, Echinochloa crus-galli; settings: Echinochloa crus-galli, post-emergence
Outline: as §2

johnsongrass = assay: Test C postemergence; assay type: in vivo, Sorghum halepense; settings: Sorghum halepense, post-emergence
Outline: as §2

blackgrass = assay: Test C postemergence; assay type: in vivo, Alopecurus myosuroides; settings: Alopecurus myosuroides, post-emergence
Outline: as §2

yellow nutsedge = assay: Test C postemergence; assay type: in vivo, Cyperus esculentus; settings: Cyperus, post-emergence
Outline: as §2

wheat [6] = assay: Test A postemergence; assay type: in vivo, Triticum aestivum; settings: Triticum aestivum, post-emergence, 240 h
Outline: as §1

sedge, umbrella = assay: Test B flooded paddy test; assay type: in vivo, Cyperus difformis; settings: Cyperus difformis, Flood, 250 g ai/ha; 0 to 100 scale where 0 is no effect and 100 is complete control; read-out: Plant response rating, Sedge, Umbrella
Outline: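 Greenhouse flooded-pot test: compounds dosed into 3 cm standing water over 2-leaf plants, flood held constant. Rated visually after 13–15 days on 0–100 (complete control = 100); a dash marks no test result.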

corn = assay: Test A preemergence; assay type: in vivo, Zea mays; settings: Zea mays, pre-emergence, 240 h
Outline: as §1

morningglory [7] = assay: Test A postemergence; assay type: in vivo, Ipomoea spp.; settings: Ipomoea, post-emergence, 240 h
Outline: as §1

oilseed rape = assay: Test C postemergence; assay type: in vivo, Brassica napus; settings: Brassica napus, post-emergence
Outline: as §2

[8] = 125 g ai/ha, 0 to 100 scale where 0 is no effect and 100 is complete control

Question: With `N#Cc1cccc(Oc2ncc(Cl)cn2)c1-n1cc(Br)cn1` [Compound 52, 2-(4-bromo-1H-pyrazol-1-yl)-3-[(5-chloro-2-pyrimidinyl)oxy]benzonitrile] as the compound, how does the “Plant response rating, Wheat” value (wheat [1]; [8]) read?
Answer: The value was 20.

Question: And the plant injury at 500 g/ha (wheat [1]; Triticum aestivum, pre-emergence, 240 h, 500 g ai/ha, 0 to 100 scale, 0 no effect, 100 complete control, approx. 10 days, read-out: Wheat plant response rating)?
Answer: The plant injury at 500 g/ha was 80%.

Question: What about the pest or weed control at 125 g/ha (large (Lg) crabgrass; 125 g ai/ha, postemergence, read-out: Plant response rating (0 to 100), Crabgrass, Large) of the same compound?
Answer: The pest or weed control at 125 g/ha was 20%.

Question: And the pest or weed control at 250 g/ha (large (Lg) crabgrass; 250 g ai/ha, postemergence, read-out: Plant response rating (0 to 100), Crabgrass, Large)?
Answer: The pest or weed control at 250 g/ha was 40%.

Question: What about the pest or weed control at 31 g/ha (large (Lg) crabgrass; Postemergence, 31 g ai/ha, scale 0 to 100 (0 no effect, 100 complete control), 13 to 15 days, read-out: Plant response rating, Crabgrass, Large) of the same compound?
Answer: The pest or weed control at 31 g/ha was 5%.

Question: What about the pest or weed control at 62 g/ha (large (Lg) crabgrass; Postemergence, 62 g ai/ha, scale 0 to 100 (0 no effect, 100 complete control), read-out: Plant response rating, Crabgrass, Large) of the same compound?
Answer: The pest or weed control at 62 g/ha was 15%.

Question: What about the “Plant response rating, Morningglory” value (morningglory [2]; [8]) of the same compound?
Answer: The value was 90.

Question: And the pest or weed control at 500 g/ha (morningglory [2]; Ipomoea, pre-emergence, 240 h, 500 g ai/ha, 0 to 100 scale, 0 no effect, 100 complete control, approx. 10 days, read-out: Morningglory plant response rating)?
Answer: Its pest or weed control at 500 g/ha is 100%.

Question: What about the pest or weed control at 125 g/ha (kochia; 125 g ai/ha, postemergence, read-out: Plant response rating (0 to 100), Kochia) of the same compound?
Answer: The pest or weed control at 125 g/ha was 90%.

Question: And the pest or weed control at 250 g/ha (kochia; 250 g ai/ha, postemergence, read-out: Plant response rating (0 to 100), Kochia)?
Answer: The pest or weed control at 250 g/ha was 95%.

Question: What about the pest or weed control at 31 g/ha (kochia; Postemergence, 31 g ai/ha, scale 0 to 100 (0 no effect, 100 complete control), 13 to 15 days, read-out: Plant response rating, Kochia) of the same compound?
Answer: Its pest or weed control at 31 g/ha is 75%.

Question: And the pest or weed control at 62 g/ha (kochia; Postemergence, 62 g ai/ha, scale 0 to 100 (0 no effect, 100 complete control), read-out: Plant response rating, Kochia)?
Answer: The pest or weed control at 62 g/ha was 90%.

Question: What about the pest or weed control at 125 g/ha (barnyardgrass [3]; 125 g ai/ha, 0 to 100 scale where 0 is no effect and 100 is complete control, read-out: Plant response rating, Barnyardgrass) of the same compound?
Answer: Its pest or weed control at 125 g/ha is 90%.

Question: And the pest or weed control at 500 g/ha (barnyardgrass [3]; 500 g ai/ha, 0 to 100 scale, 0 no effect, 100 complete control, approx. 10 days, read-out: Barnyardgrass plant response rating)?
Answer: Its pest or weed control at 500 g/ha is 100%.

Question: What about the pest or weed control at 125 g/ha (morningglory [4]; 125 g ai/ha, postemergence, read-out: Plant response rating (0 to 100), Morningglory) of the same compound?
Answer: The pest or weed control at 125 g/ha was 95%.

Question: And the pest or weed control at 250 g/ha (morningglory [4]; 250 g ai/ha, postemergence, read-out: Plant response rating (0 to 100), Morningglory)?
Answer: Its pest or weed control at 250 g/ha is 100%.

Question: And the pest or weed control at 31 g/ha (morningglory [4]; Postemergence, 31 g ai/ha, scale 0 to 100 (0 no effect, 100 complete control), 13 to 15 days, read-out: Plant response rating, Morningglory)?
Answer: Its pest or weed control at 31 g/ha is 80%.

Question: And the pest or weed control at 62 g/ha (morningglory [4]; Postemergence, 62 g ai/ha, scale 0 to 100 (0 no effect, 100 complete control), read-out: Plant response rating, Morningglory)?
Answer: The pest or weed control at 62 g/ha was 80%.

Question: What about the pest or weed control at 125 g/ha (barnyardgrass [5]; 125 g ai/ha, postemergence, read-out: Plant response rating (0 to 100), Barnyardgrass) of the same compound?
Answer: The pest or weed control at 125 g/ha was 5%.

Question: And the pest or weed control at 250 g/ha (barnyardgrass [5]; 250 g ai/ha, postemergence, read-out: Plant response rating (0 to 100), Barnyardgrass)?
Answer: The pest or weed control at 250 g/ha was 10%.

Question: What about the pest or weed control at 31 g/ha (barnyardgrass [5]; Postemergence, 31 g ai/ha, scale 0 to 100 (0 no effect, 100 complete control), 13 to 15 days, read-out: Plant response rating, Barnyardgrass) of the same compound?
Answer: Its pest or weed control at 31 g/ha is 0%.

Question: What about the pest or weed control at 62 g/ha (barnyardgrass [5]; Postemergence, 62 g ai/ha, scale 0 to 100 (0 no effect, 100 complete control), read-out: Plant response rating, Barnyardgrass) of the same compound?
Answer: Its pest or weed control at 62 g/ha is 5%.

Question: And the pest or weed control at 125 g/ha (johnsongrass; 125 g ai/ha, postemergence, read-out: Plant response rating (0 to 100), Johnsongrass)?
Answer: The pest or weed control at 125 g/ha was 5%.

Question: What about the pest or weed control at 250 g/ha (johnsongrass; 250 g ai/ha, postemergence, read-out: Plant response rating (0 to 100), Johnsongrass) of the same compound?
Answer: The pest or weed control at 250 g/ha was 10%.

Question: And the pest or weed control at 31 g/ha (johnsongrass; Postemergence, 31 g ai/ha, scale 0 to 100 (0 no effect, 100 complete control), 13 to 15 days, read-out: Plant response rating, Johnsongrass)?
Answer: Its pest or weed control at 31 g/ha is 5%.

Question: And the pest or weed control at 62 g/ha (johnsongrass; Postemergence, 62 g ai/ha, scale 0 to 100 (0 no effect, 100 complete control), read-out: Plant response rating, Johnsongrass)?
Answer: The pest or weed control at 62 g/ha was 5%.

Question: And the pest or weed control at 125 g/ha (blackgrass; 125 g ai/ha, postemergence, read-out: Plant response rating (0 to 100), Blackgrass)?
Answer: The pest or weed control at 125 g/ha was 10%.

Question: What about the pest or weed control at 250 g/ha (blackgrass; 250 g ai/ha, postemergence, read-out: Plant response rating (0 to 100), Blackgrass) of the same compound?
Answer: Its pest or weed control at 250 g/ha is 25%.

Question: And the pest or weed control at 31 g/ha (blackgrass; Postemergence, 31 g ai/ha, scale 0 to 100 (0 no effect, 100 complete control), 13 to 15 days, read-out: Plant response rating, Blackgrass)?
Answer: The pest or weed control at 31 g/ha was 5%.

Question: And the pest or weed control at 62 g/ha (blackgrass; Postemergence, 62 g ai/ha, scale 0 to 100 (0 no effect, 100 complete control), read-out: Plant response rating, Blackgrass)?
Answer: The pest or weed control at 62 g/ha was 5%.

Question: What about the pest or weed control at 125 g/ha (yellow nutsedge; 125 g ai/ha, postemergence, read-out: Plant response rating (0 to 100), Nutsedge, Yellow) of the same compound?
Answer: Its pest or weed control at 125 g/ha is 5%.

Question: And the pest or weed control at 250 g/ha (yellow nutsedge; 250 g ai/ha, postemergence, read-out: Plant response rating (0 to 100), Nutsedge, Yellow)?
Answer: The pest or weed control at 250 g/ha was 30%.

Question: And the pest or weed control at 31 g/ha (yellow nutsedge; Postemergence, 31 g ai/ha, scale 0 to 100 (0 no effect, 100 complete control), 13 to 15 days, read-out: Plant response rating, Nutsedge, Yellow)?
Answer: Its pest or weed control at 31 g/ha is 0%.

Question: What about the pest or weed control at 62 g/ha (yellow nutsedge; Postemergence, 62 g ai/ha, scale 0 to 100 (0 no effect, 100 complete control), read-out: Plant response rating, Nutsedge, Yellow) of the same compound?
Answer: Its pest or weed control at 62 g/ha is 5%.

Question: What about the plant injury at 125 g/ha (wheat [6]; 125 g ai/ha, 0 to 100 scale where 0 is no effect and 100 is complete control, read-out: Plant response rating, Wheat) of the same compound?
Answer: Its plant injury at 125 g/ha is 40%.

Question: What about the plant injury at 500 g/ha (wheat [6]; 500 g ai/ha, 0 to 100 scale, 0 no effect, 100 complete control, read-out: Plant response rating Wheat) of the same compound?
Answer: The plant injury at 500 g/ha was 100%.

Question: And the pest or weed control at 250 g/ha (sedge, umbrella)?
Answer: Its pest or weed control at 250 g/ha is 95%.

Question: And the Corn plant response rating (crop injury, 0 = no effect, 100 = complete kill) at 125 g/ha (corn; [8])?
Answer: The Corn plant response rating (crop injury, 0 = no effect, 100 = complete kill) at 125 g/ha was 20%.

Question: And the plant injury at 500 g/ha (corn; 500 g ai/ha, 0 to 100 scale, 0 no effect, 100 complete control, approx. 10 days, read-out: Corn plant response rating)?
Answer: Its plant injury at 500 g/ha is 80%.

Question: And the pest or weed control at 125 g/ha (morningglory [7]; 125 g ai/ha, 0 to 100 scale where 0 is no effect and 100 is complete control, read-out: Plant response rating, Morningglory)?
Answer: The pest or weed control at 125 g/ha was 100%.

Question: And the pest or weed control at 500 g/ha (morningglory [7]; 500 g ai/ha, 0 to 100 scale, 0 no effect, 100 complete control, read-out: Plant response rating Morningglory)?
Answer: Its pest or weed control at 500 g/ha is 100%.

Question: What about the plant injury at 125 g/ha (oilseed rape; 125 g ai/ha, postemergence, read-out: Plant response rating (0 to 100), Oilseed Rape) of the same compound?
Answer: The plant injury at 125 g/ha was 70%.

Question: And the plant injury at 250 g/ha (oilseed rape; 250 g ai/ha, postemergence, read-out: Plant response rating (0 to 100), Oilseed Rape)?
Answer: The plant injury at 250 g/ha was 85%.

Question: What about the plant injury at 31 g/ha (oilseed rape; Postemergence, 31 g ai/ha, scale 0 to 100 (0 no effect, 100 complete control), 13 to 15 days, read-out: Plant response rating, Oilseed Rape) of the same compound?
Answer: The plant injury at 31 g/ha was 25%.

Question: And the plant injury at 62 g/ha (oilseed rape; Postemergence, 62 g ai/ha, scale 0 to 100 (0 no effect, 100 complete control), read-out: Plant response rating, Oilseed Rape)?
Answer: Its plant injury at 62 g/ha is 40%.
